Results as given in ChEMBL document CHEMBL1201862, “PubChem BioAssay data set” (2004).
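Grown in 96-well plates, cells were treated for 48 hours with each compound at five concentrations. Insufficient inhibition: endpoint recorded as highest concentration tested. GI50 = concentration required for 50% inhibition of growth.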 Activity calls are given as the source filed them. Cut-off read from the data, not from the text of the source: active = GI50 up to about 1.1 µM and inactive = higher.

Assays:
Assay in all cases: DTP human tumour cell line panel, 48 h
A498 = test system: A498
ACHN = test system: ACHN
CCRF-CEM = test system: CCRF-CEM
HCT-15 = test system: HCT-15
HT-29 = test system: HT-29
Hs-578T = test system: Hs-578T
M14 = test system: M14
MCF7 = test system: MCF7
MOLT-4 = test system: MOLT-4
NCI-H226 = test system: NCI-H226
NCI-H23 = test system: NCI-H23
OVCAR-5 = test system: OVCAR-5
RPMI-8226 = test system: RPMI-8226
SF-268 = test system: SF-268
SF-539 = test system: SF-539
SK-MEL-28 = test system: SK-MEL-28
SN12C = test system: SN12C
SR = test system: SR
UACC-257 = test system: UACC-257
HCC 2998 = test system: HCC 2998

Measured: GI50

O=C(O)c1nnsc1-c1csnn1
inactive: A498 > 100 µM | ACHN > 100 µM | CCRF-CEM > 100 µM | HT-29 > 100 µM | Hs-578T > 100 µM | M14 > 100 µM | MCF7 > 100 µM | MOLT-4 > 100 µM | NCI-H226 > 100 µM | NCI-H23 > 100 µM | OVCAR-5 > 100 µM | RPMI-8226 > 100 µM | SF-268 > 100 µM | SF-539 > 100 µM | SK-MEL-28 > 100 µM | SN12C > 100 µM | SR 54.6 µM | UACC-257 > 100 µM
> 100 µM: HCT-15

COc1cc2c(cc1OCCCCCOc1cc3c(cc1OC)C(=O)N1CCC[C@H]1CN3)N=C[C@@H]1CCCN1C2=O
active: CCRF-CEM 0.233 µM | SN12C 0.509 µM | SR 0.249 µM
13.7 µM: HCT-15
inactive: ACHN 4.03 µM | HT-29 5.04 µM | Hs-578T 6.75 µM | M14 2.77 µM | MCF7 15.8 µM | MOLT-4 2.4 µM | NCI-H226 2.48 µM | NCI-H23 4.8 µM | OVCAR-5 16.9 µM | SF-268 3.57 µM | SF-539 3.18 µM | SK-MEL-28 11.2 µM | UACC-257 12.3 µM

Cc1ccsc1/C=N/Nc1cc(C)c2ccccc2n1
11.4 µM: HCT-15
inactive: A498 10.4 µM | ACHN 12.9 µM | CCRF-CEM 17.1 µM | HCC 2998 14 µM | HT-29 3.61 µM | Hs-578T 16.7 µM | M14 8.63 µM | MCF7 15.6 µM | MOLT-4 9.23 µM | NCI-H226 16 µM | NCI-H23 11.2 µM | OVCAR-5 24.3 µM | RPMI-8226 3.28 µM | SF-268 17.6 µM | SK-MEL-28 14.6 µM | SN12C 15.2 µM | UACC-257 6.78 µM

COc1cc(OC)c(C/C=C/c2ccccc2)cc1O
16.5 µM: HCT-15
inactive: A498 14.8 µM | ACHN 25.7 µM | CCRF-CEM 22.1 µM | HCC 2998 16.3 µM | HT-29 17.7 µM | Hs-578T 16.8 µM | M14 19 µM | MOLT-4 11.8 µM | NCI-H226 17.9 µM | NCI-H23 17.4 µM | OVCAR-5 26.6 µM | RPMI-8226 14.9 µM | SF-268 16.7 µM | SF-539 16.2 µM | SK-MEL-28 16.6 µM | SN12C 16 µM | UACC-257 23.6 µM

Nc1ncn2c(n1)nc1ccccc12
inactive: A498 57 µM | ACHN > 100 µM | CCRF-CEM > 100 µM | HT-29 > 100 µM | Hs-578T > 100 µM | M14 > 100 µM | MCF7 > 100 µM | MOLT-4 > 100 µM | NCI-H226 > 100 µM | NCI-H23 > 100 µM | OVCAR-5 > 100 µM | RPMI-8226 > 100 µM | SF-268 > 100 µM | SF-539 > 100 µM | SK-MEL-28 > 100 µM | SN12C > 100 µM | SR > 100 µM | UACC-257 > 100 µM
> 100 µM: HCT-15

CCOP(=O)(OCC)C(Nc1ccc(Br)cc1)c1cccc([N+](=O)[O-])c1 (centres undefined)
14.5 µM: HCT-15
inactive: A498 13.3 µM | ACHN 18.3 µM | CCRF-CEM 17.8 µM | HCC 2998 17.5 µM | HT-29 16.8 µM | Hs-578T 21.3 µM | M14 17.1 µM | MOLT-4 17 µM | NCI-H226 16.7 µM | NCI-H23 20.7 µM | OVCAR-5 24.1 µM | RPMI-8226 28.2 µM | SF-268 17.7 µM | SF-539 19.6 µM | SK-MEL-28 15.2 µM | SN12C 18.8 µM | SR 18.1 µM | UACC-257 > 10 µM

CN(C)/N=N/c1nc2c(c(=O)n(C)c(=O)n2C)n1CC(O)CO (centres undefined)
inactive: ACHN > 100 µM | CCRF-CEM > 100 µM | HCC 2998 > 100 µM | HT-29 > 100 µM | Hs-578T > 100 µM | M14 > 100 µM | MCF7 10.6 µM | MOLT-4 > 100 µM | NCI-H226 > 100 µM | NCI-H23 > 100 µM | OVCAR-5 > 100 µM | RPMI-8226 > 100 µM | SF-268 > 100 µM | SK-MEL-28 > 100 µM | SN12C > 100 µM | UACC-257 > 100 µM
> 100 µM: HCT-15

CCOC(=O)CSC1NC(C(=O)OC)CC1OC (centres undefined)
inactive: A498 > 100 µM | ACHN > 100 µM | CCRF-CEM 75 µM | HCC 2998 > 100 µM | HT-29 > 100 µM | Hs-578T > 100 µM | M14 > 100 µM | MCF7 > 100 µM | MOLT-4 > 100 µM | NCI-H23 > 100 µM | OVCAR-5 > 100 µM | RPMI-8226 > 100 µM | SF-268 > 100 µM | SK-MEL-28 > 100 µM | UACC-257 > 100 µM
> 100 µM: HCT-15

COc1ccc(-c2cc(-c3ccc(O)cc3O)c(C#N)c(=O)[nH]2)cc1
inactive: ACHN 43.2 µM | CCRF-CEM 23.9 µM | HT-29 18.1 µM | Hs-578T 18.5 µM | M14 16 µM | MCF7 27 µM | MOLT-4 18.6 µM | NCI-H226 20.6 µM | NCI-H23 26.2 µM | OVCAR-5 18.6 µM | RPMI-8226 15.7 µM | SF-268 24.3 µM | SF-539 17.6 µM | SK-MEL-28 15.1 µM | SN12C 18.8 µM | SR 16.7 µM | UACC-257 19.5 µM
31.9 µM: HCT-15

Nc1c(-c2nc3ccccc3s2)c2ccc([N+](=O)[O-])cc2c(=O)n1-c1cccc(C(=O)O)c1
inactive: ACHN 33 µM | CCRF-CEM 22.8 µM | HCC 2998 62.5 µM | HT-29 86.1 µM | Hs-578T 27.5 µM | NCI-H226 23 µM | NCI-H23 25.4 µM | SF-268 35.5 µM | SK-MEL-28 21.4 µM | SN12C 30.3 µM | SR 15.8 µM | UACC-257 20.9 µM
27.4 µM: HCT-15

Cn1c(N)c(Cc2ccc(Cl)cc2)c(=O)[nH]c1=O
> 100 µM: HCT-15
inactive: A498 > 100 µM | ACHN > 100 µM | CCRF-CEM > 100 µM | HT-29 > 100 µM | Hs-578T > 100 µM | M14 > 100 µM | MCF7 > 100 µM | MOLT-4 > 100 µM | NCI-H226 > 100 µM | NCI-H23 > 100 µM | OVCAR-5 > 100 µM | RPMI-8226 > 100 µM | SF-268 > 100 µM | SF-539 > 100 µM | SK-MEL-28 > 100 µM | SN12C > 100 µM | SR > 100 µM | UACC-257 > 100 µM

Clc1ccc(COC(Cn2ccnc2)c2ccc(Cl)cc2Cl)c(Cl)c1 (centres undefined) [MICONAZOLE]
10.8 µM: HCT-15
inactive: ACHN 15 µM | CCRF-CEM 8.09 µM | HCC 2998 17.1 µM | Hs-578T 13.4 µM | M14 12.6 µM | MCF7 10.9 µM | MOLT-4 4.33 µM | NCI-H23 11 µM | OVCAR-5 17.7 µM | RPMI-8226 8.65 µM | SF-268 11.2 µM | SF-539 13.8 µM | SK-MEL-28 17.1 µM | SN12C 13.6 µM | UACC-257 13.6 µM
